Test results published in PubChem BioAssay (NCI).
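Values below derive from 48-hour exposures of cells grown in 96-well plates, with endpoints linearly interpolated between the two concentrations bracketing the appropriate inhibition level. Definition used: TGI = concentration required for complete inhibition of growth.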

Assays:
Assay in all cases: DTP human tumour cell line panel, 48 h
HS 578T breast = tested on: HS 578T breast
HCT-116 colon = tested on: HCT-116 colon
SF-268 CNS = tested on: SF-268 CNS
SNB-19 CNS = tested on: SNB-19 CNS
KM12 colon = tested on: KM12 colon
HOP-92 NSCLC = tested on: HOP-92 NSCLC
RPMI-8226 leukemia = tested on: RPMI-8226 leukemia
SK-OV-3 ovarian = tested on: SK-OV-3 ovarian
A549 NSCLC = tested on: A549 NSCLC
UO-31 renal = tested on: UO-31 renal
PC-3 prostate = tested on: PC-3 prostate
UACC-257 melanoma = tested on: UACC-257 melanoma
CCRF-CEM leukemia = tested on: CCRF-CEM leukemia
MDA-MB-435 = tested on: MDA-MB-435
COLO 205 colon = tested on: COLO 205 colon
T-47D breast = tested on: T-47D breast
OVCAR-8 ovarian = tested on: OVCAR-8 ovarian
HCT-15 colon = tested on: HCT-15 colon
MOLT-4 leukemia = tested on: MOLT-4 leukemia
ACHN renal = tested on: ACHN renal
OVCAR-5 ovarian = tested on: OVCAR-5 ovarian
LOX IMVI melanoma = tested on: LOX IMVI melanoma
SK-MEL-2 melanoma = tested on: SK-MEL-2 melanoma
SK-MEL-28 melanoma = tested on: SK-MEL-28 melanoma
HOP-62 NSCLC = tested on: HOP-62 NSCLC
U251 CNS = tested on: U251 CNS
NCI/ADR-RES ovarian = tested on: NCI/ADR-RES ovarian
DU-145 prostate = tested on: DU-145 prostate
HL-60(TB) leukemia = tested on: HL-60(TB) leukemia
SR leukemia = tested on: SR leukemia
SF-295 CNS = tested on: SF-295 CNS
SK-MEL-5 melanoma = tested on: SK-MEL-5 melanoma
MCF7 breast = tested on: MCF7 breast
SN12C renal = tested on: SN12C renal
SF-539 CNS = tested on: SF-539 CNS
UACC-62 melanoma = tested on: UACC-62 melanoma
OVCAR-4 ovarian = tested on: OVCAR-4 ovarian
M14 melanoma = tested on: M14 melanoma
EKVX NSCLC = tested on: EKVX NSCLC
OVCAR-3 ovarian = tested on: OVCAR-3 ovarian
K-562 leukemia = tested on: K-562 leukemia
MDA-N = tested on: MDA-N
BT-549 breast = tested on: BT-549 breast
NCI-H460 lung = tested on: NCI-H460 lung
CAKI-1 renal = tested on: CAKI-1 renal
HCC-2998 colon = tested on: HCC-2998 colon
786-0 renal = tested on: 786-0 renal
A498 renal = tested on: A498 renal
IGROV1 ovarian = tested on: IGROV1 ovarian
HT29 colon = tested on: HT29 colon
NCI-H23 lung = tested on: NCI-H23 lung
SW-620 colon = tested on: SW-620 colon
NCI-H226 lung = tested on: NCI-H226 lung
TK-10 renal = tested on: TK-10 renal
RXF 393 renal = tested on: RXF 393 renal
NCI-H522 lung = tested on: NCI-H522 lung
SNB-75 CNS = tested on: SNB-75 CNS
MALME-3M melanoma = tested on: MALME-3M melanoma

Structure (SMILES): O=C1c2ccc3c4ccc5c6c(ccc(c7ccc(c2c37)C(=O)N1CCN1CCCCC1)c64)C(=O)N(CCN1CCCCC1)C5=O
- TGI (HS 578T breast): > 100 µM
- TGI (HCT-116 colon): > 100 µM
- TGI (SF-268 CNS): > 100 µM
- TGI (SNB-19 CNS): > 100 µM
- TGI (KM12 colon): > 100 µM
- TGI (HOP-92 NSCLC): > 100 µM
- TGI (RPMI-8226 leukemia): > 100 µM
- TGI (SK-OV-3 ovarian): > 100 µM
- TGI (A549 NSCLC): > 100 µM
- TGI (UO-31 renal): > 100 µM
- TGI (PC-3 prostate): > 100 µM
- TGI (UACC-257 melanoma): > 100 µM
- TGI (CCRF-CEM leukemia): > 100 µM
- TGI (MDA-MB-435): > 100 µM
- TGI (COLO 205 colon): > 100 µM
- TGI (T-47D breast): > 100 µM
- TGI (OVCAR-8 ovarian): > 100 µM
- TGI (HCT-15 colon): > 100 µM
- TGI (MOLT-4 leukemia): > 100 µM
- TGI (ACHN renal): > 100 µM
- TGI (OVCAR-5 ovarian): > 100 µM
- TGI (LOX IMVI melanoma): > 100 µM
- TGI (SK-MEL-2 melanoma): > 100 µM
- TGI (SK-MEL-28 melanoma): > 100 µM
- TGI (HOP-62 NSCLC): > 100 µM
- TGI (U251 CNS): > 100 µM
- TGI (NCI/ADR-RES ovarian): > 100 µM
- TGI (DU-145 prostate): > 100 µM
- TGI (HL-60(TB) leukemia): > 100 µM
- TGI (SR leukemia): > 100 µM
- TGI (SF-295 CNS): > 100 µM
- TGI (SK-MEL-5 melanoma): > 100 µM
- TGI (MCF7 breast): > 100 µM
- TGI (SN12C renal): > 100 µM
- TGI (SF-539 CNS): > 100 µM
- TGI (UACC-62 melanoma): > 100 µM
- TGI (OVCAR-4 ovarian): > 100 µM
- TGI (M14 melanoma): > 100 µM
- TGI (EKVX NSCLC): > 100 µM
- TGI (OVCAR-3 ovarian): > 100 µM
- TGI (K-562 leukemia): > 100 µM
- TGI (MDA-N): > 100 µM
- TGI (BT-549 breast): > 100 µM
- TGI (NCI-H460 lung): > 100 µM
- TGI (CAKI-1 renal): > 100 µM
- TGI (HCC-2998 colon): > 100 µM
- TGI (786-0 renal): > 100 µM
- TGI (A498 renal): > 100 µM
- TGI (IGROV1 ovarian): > 100 µM
- TGI (HT29 colon): > 100 µM
- TGI (NCI-H23 lung): > 100 µM
- TGI (SW-620 colon): > 100 µM
- TGI (NCI-H226 lung): > 100 µM
- TGI (TK-10 renal): > 100 µM
- TGI (RXF 393 renal): > 100 µM

Structure (SMILES): CCC(=O)Nc1cccc(NC(=O)c2c(Cl)c(Cl)c(Cl)c(Cl)c2-c2nc3ccccc3[nH]2)c1
- TGI (HS 578T breast): > 100 µM
- TGI (HCT-116 colon): > 100 µM
- TGI (SF-268 CNS): > 100 µM
- TGI (SNB-19 CNS): > 100 µM
- TGI (KM12 colon): > 100 µM
- TGI (HOP-92 NSCLC): 66.5 µM
- TGI (RPMI-8226 leukemia): > 100 µM
- TGI (A549 NSCLC): > 100 µM
- TGI (UO-31 renal): > 100 µM
- TGI (PC-3 prostate): > 100 µM
- TGI (UACC-257 melanoma): > 100 µM
- TGI (CCRF-CEM leukemia): > 100 µM
- TGI (MDA-MB-435): > 100 µM
- TGI (NCI-H522 lung): > 100 µM
- TGI (COLO 205 colon): > 100 µM
- TGI (T-47D breast): > 100 µM
- TGI (SNB-75 CNS): > 100 µM
- TGI (OVCAR-8 ovarian): > 100 µM
- TGI (HCT-15 colon): > 100 µM
- TGI (MOLT-4 leukemia): > 100 µM
- TGI (ACHN renal): > 100 µM
- TGI (OVCAR-5 ovarian): > 100 µM
- TGI (LOX IMVI melanoma): > 100 µM
- TGI (SK-MEL-2 melanoma): > 100 µM
- TGI (SK-MEL-28 melanoma): > 100 µM
- TGI (NCI/ADR-RES ovarian): > 100 µM
- TGI (DU-145 prostate): > 100 µM
- TGI (HL-60(TB) leukemia): > 100 µM
- TGI (SR leukemia): > 100 µM
- TGI (SF-295 CNS): > 100 µM
- TGI (SK-MEL-5 melanoma): > 100 µM
- TGI (MCF7 breast): > 100 µM
- TGI (SN12C renal): > 100 µM
- TGI (SF-539 CNS): > 100 µM
- TGI (UACC-62 melanoma): > 100 µM
- TGI (OVCAR-4 ovarian): > 100 µM
- TGI (M14 melanoma): > 100 µM
- TGI (EKVX NSCLC): > 100 µM
- TGI (OVCAR-3 ovarian): > 100 µM
- TGI (K-562 leukemia): > 100 µM
- TGI (MDA-N): > 100 µM
- TGI (MALME-3M melanoma): > 100 µM
- TGI (BT-549 breast): > 100 µM
- TGI (NCI-H460 lung): > 100 µM
- TGI (CAKI-1 renal): > 100 µM
- TGI (HCC-2998 colon): > 100 µM
- TGI (786-0 renal): > 100 µM
- TGI (A498 renal): > 100 µM
- TGI (IGROV1 ovarian): > 100 µM
- TGI (HT29 colon): > 100 µM
- TGI (NCI-H23 lung): > 100 µM
- TGI (SW-620 colon): > 100 µM
- TGI (RXF 393 renal): > 100 µM
